Measured values published in ChEMBL document CHEMBL5465560, “Selectivity Literature for EUbOPEN Chemogenomic Library” (2024).

Key:
[1] = target: T1, Peripheral plasma membrane protein CASK (Homo sapiens) (UniProt O14936); experiment: Selectivity interaction (KinomeScan (DiscoverX)) EUB0000666a CASK; settings: at 10 µM
T1 sequence (whole entry): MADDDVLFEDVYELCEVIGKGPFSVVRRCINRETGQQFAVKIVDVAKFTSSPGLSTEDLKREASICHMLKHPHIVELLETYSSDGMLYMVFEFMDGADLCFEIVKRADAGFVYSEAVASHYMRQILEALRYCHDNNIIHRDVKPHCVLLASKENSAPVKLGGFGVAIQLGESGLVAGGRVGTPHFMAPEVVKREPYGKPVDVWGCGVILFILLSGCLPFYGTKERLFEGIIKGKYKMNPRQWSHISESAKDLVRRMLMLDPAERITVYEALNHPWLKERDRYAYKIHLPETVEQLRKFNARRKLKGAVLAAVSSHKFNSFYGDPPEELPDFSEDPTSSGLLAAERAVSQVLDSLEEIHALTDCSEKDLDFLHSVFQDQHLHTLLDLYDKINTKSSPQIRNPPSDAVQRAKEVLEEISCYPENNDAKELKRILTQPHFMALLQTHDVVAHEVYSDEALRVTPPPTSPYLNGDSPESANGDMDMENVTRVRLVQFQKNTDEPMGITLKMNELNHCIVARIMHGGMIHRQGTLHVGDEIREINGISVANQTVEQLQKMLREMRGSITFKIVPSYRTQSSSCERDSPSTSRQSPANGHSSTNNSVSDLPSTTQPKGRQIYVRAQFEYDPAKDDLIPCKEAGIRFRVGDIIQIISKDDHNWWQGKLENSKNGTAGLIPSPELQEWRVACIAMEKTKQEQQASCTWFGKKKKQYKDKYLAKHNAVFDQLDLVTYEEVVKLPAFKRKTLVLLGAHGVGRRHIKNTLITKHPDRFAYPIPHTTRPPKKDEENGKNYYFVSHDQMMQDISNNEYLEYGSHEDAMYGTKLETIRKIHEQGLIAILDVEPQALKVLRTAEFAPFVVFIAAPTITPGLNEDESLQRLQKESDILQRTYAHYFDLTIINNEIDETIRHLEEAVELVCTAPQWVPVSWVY

[2] = target: Calcium/calmodulin-dependent protein kinase type 1 (Homo sapiens) (UniProt Q14012); settings: at 10 µM
Sequence of Calcium/calmodulin-dependent protein kinase type 1 (Homo sapiens) (Q14012 whole entry, looked up): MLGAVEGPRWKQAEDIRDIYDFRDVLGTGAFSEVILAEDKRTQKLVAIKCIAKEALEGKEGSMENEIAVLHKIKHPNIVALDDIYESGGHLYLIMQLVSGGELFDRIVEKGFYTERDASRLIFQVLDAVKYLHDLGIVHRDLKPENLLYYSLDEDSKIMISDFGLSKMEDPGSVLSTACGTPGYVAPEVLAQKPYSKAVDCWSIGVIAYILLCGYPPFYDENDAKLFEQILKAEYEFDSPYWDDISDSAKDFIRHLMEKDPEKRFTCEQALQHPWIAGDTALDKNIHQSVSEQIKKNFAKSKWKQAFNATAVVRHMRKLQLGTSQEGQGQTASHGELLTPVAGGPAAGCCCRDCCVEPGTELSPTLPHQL

[3] = system: Hepatocyte growth factor receptor (Homo sapiens), P08581 [Y1235D]; experiment: (§1) Selectivity interaction (KinomeScan (DiscoverX)) EUB0000092b MET; settings: at 10 µM
Sequence of Hepatocyte growth factor receptor (Homo sapiens), P08581 [Y1235D] (P08581 whole entry Y1235D): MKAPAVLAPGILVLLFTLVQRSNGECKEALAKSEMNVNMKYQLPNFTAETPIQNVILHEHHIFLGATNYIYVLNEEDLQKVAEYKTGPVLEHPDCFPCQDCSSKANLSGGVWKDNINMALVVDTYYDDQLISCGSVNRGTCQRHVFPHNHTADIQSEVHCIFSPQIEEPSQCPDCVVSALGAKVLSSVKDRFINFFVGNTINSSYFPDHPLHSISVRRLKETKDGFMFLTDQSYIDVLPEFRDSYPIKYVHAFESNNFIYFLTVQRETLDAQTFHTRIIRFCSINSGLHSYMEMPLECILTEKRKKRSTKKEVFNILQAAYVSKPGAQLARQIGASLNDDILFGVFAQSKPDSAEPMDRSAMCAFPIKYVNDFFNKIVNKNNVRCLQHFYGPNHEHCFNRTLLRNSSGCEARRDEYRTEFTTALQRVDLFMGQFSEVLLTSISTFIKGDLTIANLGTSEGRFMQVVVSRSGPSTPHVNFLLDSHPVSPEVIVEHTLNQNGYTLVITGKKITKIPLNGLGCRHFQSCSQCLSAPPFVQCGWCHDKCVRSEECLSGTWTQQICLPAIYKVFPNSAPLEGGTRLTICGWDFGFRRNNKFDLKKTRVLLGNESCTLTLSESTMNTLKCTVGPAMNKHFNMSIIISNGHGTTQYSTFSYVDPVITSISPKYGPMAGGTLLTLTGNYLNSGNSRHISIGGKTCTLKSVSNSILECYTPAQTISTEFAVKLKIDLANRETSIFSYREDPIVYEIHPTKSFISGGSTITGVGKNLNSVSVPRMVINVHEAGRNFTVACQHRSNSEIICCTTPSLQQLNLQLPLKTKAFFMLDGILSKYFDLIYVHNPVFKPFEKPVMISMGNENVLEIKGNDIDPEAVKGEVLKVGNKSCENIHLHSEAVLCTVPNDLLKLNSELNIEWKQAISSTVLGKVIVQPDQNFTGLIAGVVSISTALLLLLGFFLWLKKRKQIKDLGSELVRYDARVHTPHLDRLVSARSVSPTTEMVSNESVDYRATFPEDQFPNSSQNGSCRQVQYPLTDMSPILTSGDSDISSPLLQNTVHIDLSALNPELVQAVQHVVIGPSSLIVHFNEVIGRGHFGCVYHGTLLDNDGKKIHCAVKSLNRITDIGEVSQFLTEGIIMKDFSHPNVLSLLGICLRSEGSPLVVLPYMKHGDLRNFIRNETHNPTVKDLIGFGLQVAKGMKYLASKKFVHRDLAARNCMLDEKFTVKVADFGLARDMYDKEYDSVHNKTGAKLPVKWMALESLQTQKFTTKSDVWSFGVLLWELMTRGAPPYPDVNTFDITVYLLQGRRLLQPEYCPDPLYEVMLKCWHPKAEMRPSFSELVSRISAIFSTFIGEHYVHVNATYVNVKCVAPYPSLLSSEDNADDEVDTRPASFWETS

[4] = target: Hepatocyte growth factor receptor (Homo sapiens, UniProt P08581); experiment: as §1; settings: at 10 µM
Sequence of Hepatocyte growth factor receptor (P08581 whole entry): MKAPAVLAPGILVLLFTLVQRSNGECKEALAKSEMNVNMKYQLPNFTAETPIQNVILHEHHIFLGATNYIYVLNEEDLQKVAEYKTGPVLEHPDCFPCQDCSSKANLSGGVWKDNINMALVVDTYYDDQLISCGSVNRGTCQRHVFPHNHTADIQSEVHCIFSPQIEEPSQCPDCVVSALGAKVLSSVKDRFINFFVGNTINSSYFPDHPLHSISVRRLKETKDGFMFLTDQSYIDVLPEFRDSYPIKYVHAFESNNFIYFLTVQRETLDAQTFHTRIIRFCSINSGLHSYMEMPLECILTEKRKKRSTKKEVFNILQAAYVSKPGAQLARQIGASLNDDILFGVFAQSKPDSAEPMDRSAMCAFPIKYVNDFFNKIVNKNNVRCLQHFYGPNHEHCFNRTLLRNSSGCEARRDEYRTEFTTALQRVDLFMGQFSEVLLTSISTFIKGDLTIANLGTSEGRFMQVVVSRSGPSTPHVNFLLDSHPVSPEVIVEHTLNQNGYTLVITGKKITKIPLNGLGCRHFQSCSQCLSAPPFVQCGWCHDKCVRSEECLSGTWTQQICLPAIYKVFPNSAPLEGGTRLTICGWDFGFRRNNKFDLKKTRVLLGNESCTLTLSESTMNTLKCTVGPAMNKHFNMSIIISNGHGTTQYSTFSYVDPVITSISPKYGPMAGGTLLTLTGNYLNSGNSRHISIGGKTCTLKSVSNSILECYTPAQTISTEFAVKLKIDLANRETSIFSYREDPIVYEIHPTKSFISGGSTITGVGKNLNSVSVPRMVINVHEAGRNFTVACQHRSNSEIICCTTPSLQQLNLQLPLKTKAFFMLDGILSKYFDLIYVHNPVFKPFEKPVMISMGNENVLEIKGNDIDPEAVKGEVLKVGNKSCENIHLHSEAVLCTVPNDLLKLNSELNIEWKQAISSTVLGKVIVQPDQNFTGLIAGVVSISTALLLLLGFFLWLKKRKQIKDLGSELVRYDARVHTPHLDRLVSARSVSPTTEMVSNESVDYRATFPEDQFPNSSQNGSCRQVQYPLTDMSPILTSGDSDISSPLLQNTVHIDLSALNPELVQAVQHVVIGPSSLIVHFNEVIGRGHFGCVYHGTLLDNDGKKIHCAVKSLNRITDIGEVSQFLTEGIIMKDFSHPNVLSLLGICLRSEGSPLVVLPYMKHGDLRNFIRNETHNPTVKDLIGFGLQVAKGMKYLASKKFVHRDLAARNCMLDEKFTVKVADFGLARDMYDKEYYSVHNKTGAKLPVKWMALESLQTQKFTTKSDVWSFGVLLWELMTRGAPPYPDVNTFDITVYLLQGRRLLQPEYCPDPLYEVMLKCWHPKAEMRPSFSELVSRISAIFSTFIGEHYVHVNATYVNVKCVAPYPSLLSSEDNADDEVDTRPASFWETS

[5] = target: T2, Mitogen-activated protein kinase kinase kinase 5 (Homo sapiens) (UniProt Q99683); experiment: Selectivity interaction (KinomeScan (DiscoverX)) EUB0000090b MAP3K5; settings: at 1 µM
T2 sequence (whole entry): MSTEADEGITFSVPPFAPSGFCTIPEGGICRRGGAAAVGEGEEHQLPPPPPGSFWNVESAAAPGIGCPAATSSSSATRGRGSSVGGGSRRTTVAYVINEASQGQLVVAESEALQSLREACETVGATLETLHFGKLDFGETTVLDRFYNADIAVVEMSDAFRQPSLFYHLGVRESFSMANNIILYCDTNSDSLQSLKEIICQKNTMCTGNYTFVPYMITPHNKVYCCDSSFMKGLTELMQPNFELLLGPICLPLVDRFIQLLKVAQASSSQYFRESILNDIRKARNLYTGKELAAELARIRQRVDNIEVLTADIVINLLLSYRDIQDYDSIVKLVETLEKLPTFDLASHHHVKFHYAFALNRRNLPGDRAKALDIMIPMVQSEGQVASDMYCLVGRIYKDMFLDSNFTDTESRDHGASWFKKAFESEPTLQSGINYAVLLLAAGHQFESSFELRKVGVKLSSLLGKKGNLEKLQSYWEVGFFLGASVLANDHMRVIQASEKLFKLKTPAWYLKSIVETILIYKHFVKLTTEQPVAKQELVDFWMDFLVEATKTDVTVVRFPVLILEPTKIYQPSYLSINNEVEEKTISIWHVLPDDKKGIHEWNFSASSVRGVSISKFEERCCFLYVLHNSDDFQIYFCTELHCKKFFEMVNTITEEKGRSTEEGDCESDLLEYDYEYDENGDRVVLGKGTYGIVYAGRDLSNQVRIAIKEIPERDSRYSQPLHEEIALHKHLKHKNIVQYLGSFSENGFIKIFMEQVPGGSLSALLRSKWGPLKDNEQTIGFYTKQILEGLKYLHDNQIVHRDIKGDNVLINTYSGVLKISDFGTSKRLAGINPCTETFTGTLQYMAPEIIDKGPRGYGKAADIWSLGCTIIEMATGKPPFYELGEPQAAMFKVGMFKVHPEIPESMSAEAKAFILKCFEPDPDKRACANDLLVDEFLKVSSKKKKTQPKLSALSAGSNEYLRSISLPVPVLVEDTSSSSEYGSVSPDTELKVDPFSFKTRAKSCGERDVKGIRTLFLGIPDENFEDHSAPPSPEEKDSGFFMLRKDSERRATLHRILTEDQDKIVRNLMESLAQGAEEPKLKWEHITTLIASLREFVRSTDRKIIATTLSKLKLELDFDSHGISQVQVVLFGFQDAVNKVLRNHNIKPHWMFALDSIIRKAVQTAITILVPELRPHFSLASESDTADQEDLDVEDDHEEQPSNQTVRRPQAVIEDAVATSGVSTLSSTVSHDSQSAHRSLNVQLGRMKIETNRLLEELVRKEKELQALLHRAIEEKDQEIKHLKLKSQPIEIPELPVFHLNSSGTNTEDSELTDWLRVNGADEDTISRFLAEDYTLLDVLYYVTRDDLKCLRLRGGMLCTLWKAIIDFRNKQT

[6] = target: T3, Serine/threonine-protein kinase Sgk3 (Homo sapiens) (UniProt Q96BR1); experiment: Selectivity interaction (KinomeScan (DiscoverX)) EUB0000695a SGK3; settings: at 100 nM
T3 sequence (whole entry): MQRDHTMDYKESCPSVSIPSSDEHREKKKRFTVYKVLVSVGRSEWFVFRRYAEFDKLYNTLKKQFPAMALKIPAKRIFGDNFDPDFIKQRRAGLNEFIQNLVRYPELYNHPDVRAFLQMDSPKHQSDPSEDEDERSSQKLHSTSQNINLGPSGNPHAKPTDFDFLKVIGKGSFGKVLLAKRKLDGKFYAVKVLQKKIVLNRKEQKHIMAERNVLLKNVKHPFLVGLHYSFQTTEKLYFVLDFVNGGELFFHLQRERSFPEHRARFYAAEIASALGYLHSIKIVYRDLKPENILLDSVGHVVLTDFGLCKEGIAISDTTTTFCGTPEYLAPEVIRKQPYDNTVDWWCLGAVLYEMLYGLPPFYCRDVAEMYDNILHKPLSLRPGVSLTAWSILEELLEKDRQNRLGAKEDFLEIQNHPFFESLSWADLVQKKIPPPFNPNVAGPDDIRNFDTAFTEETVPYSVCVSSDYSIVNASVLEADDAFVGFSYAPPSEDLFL

[7] = target: Serine/threonine-protein kinase N1 (Homo sapiens, UniProt Q16512); experiment: Selectivity interaction (SelectScreen profiling (Invitrogen)) EUB0000607a PKN1; settings: at 2 µM
Sequence of Serine/threonine-protein kinase N1 (Q16512 2-942 limits assumed): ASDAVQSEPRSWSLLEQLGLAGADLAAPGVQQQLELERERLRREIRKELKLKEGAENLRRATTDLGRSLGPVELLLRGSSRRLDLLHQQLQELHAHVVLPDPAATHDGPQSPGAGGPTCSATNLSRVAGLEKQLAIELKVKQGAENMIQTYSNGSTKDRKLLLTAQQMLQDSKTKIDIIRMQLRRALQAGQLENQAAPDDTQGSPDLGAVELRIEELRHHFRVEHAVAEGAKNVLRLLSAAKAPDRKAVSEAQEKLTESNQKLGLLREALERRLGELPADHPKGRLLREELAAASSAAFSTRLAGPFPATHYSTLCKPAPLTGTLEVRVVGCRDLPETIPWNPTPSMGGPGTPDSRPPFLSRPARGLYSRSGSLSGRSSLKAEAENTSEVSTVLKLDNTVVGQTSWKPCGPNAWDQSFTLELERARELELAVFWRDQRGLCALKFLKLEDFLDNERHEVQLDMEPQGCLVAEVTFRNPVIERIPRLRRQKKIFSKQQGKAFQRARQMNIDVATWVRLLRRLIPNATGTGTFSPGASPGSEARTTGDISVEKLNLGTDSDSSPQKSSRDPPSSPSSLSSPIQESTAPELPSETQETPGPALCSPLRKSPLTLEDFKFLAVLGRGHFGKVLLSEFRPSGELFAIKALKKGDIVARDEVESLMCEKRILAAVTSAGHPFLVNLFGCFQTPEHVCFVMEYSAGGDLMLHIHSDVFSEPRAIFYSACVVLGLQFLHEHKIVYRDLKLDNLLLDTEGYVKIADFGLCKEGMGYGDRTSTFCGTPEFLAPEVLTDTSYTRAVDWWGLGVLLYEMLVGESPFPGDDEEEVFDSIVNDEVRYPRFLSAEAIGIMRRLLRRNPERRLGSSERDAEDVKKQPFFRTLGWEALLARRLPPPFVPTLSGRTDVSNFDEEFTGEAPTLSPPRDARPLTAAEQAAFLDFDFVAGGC

O=C(NOC[C@H](O)CO)c1ccc(F)c(F)c1Nc1ccc(I)cc1F
% of control [1]: 67%

CCN(CC)CCCCNc1ncc2cc(-c3cc(OC)cc(OC)c3)c(NC(=O)NC(C)(C)C)nc2n1
% of control [2]: 100%

CCC(=O)N1CCN(c2ccc(-n3c(=O)ccc4cnc5ccc(-c6cnc7ccccc7c6)cc5c43)cc2C(F)(F)F)CC1
% of control [3]: 100% | % of control [4]: 84%

CN(C)C/C=C/C(=O)Nc1ccc(C(=O)N2CCCC(Nc3ncc(Cl)c(-c4c[nH]c5ccccc45)n3)C2)cc1 (configuration not stated)
% of control [5]: 88%

Cc1cc(F)c(C(=O)Nc2cccc(-c3nncn3C(C)C)n2)cc1-n1cnc(C2CC2)c1
% of control [6]: 100%

CNC(=O)Nc1ccc(-c2nc(N3CC4CCC(C3)O4)c3cnn(C4CCC5(CC4)OCCO5)c3n2)cc1
% of inhibition [7]: 14%
